± gives the expanded uncertainty stated by the source.
Experiment: xn = mol fraction of the nth substance listed
Details: 103 kPa, Liquid, Vibrating tube method

CO[Si](C)(C)OC [dimethoxydimethylsilane] + CO[Si](C)(OC)c1ccccc1
mass density [kg/m3]
Details	298.15 K	303.15 K	308.15 K	313.15 K	318.15 K
x2 = 0	857.9 ± 0.41	852.05 ± 0.41	846.16 ± 0.41	840.22 ± 0.42	834.24 ± 0.42
x2 = 0.0501	867.91 ± 0.41	862.2 ± 0.42	856.41 ± 0.42	850.61 ± 0.42	844.75 ± 0.42
x2 = 0.1001	877.51 ± 0.41	871.89 ± 0.41	866.22 ± 0.41	860.51 ± 0.42	854.76 ± 0.42
x2 = 0.15	886.69 ± 0.41	881.2 ± 0.41	875.64 ± 0.41	870.06 ± 0.41	864.46 ± 0.42
x2 = 0.2	895.55 ± 0.41	890.16 ± 0.41	884.71 ± 0.41	879.29 ± 0.41	873.78 ± 0.41
x2 = 0.25	904.02 ± 0.41	898.68 ± 0.41	893.28 ± 0.41	887.86 ± 0.41	882.41 ± 0.41
x2 = 0.2999	912.17 ± 0.41	906.9 ± 0.41	901.56 ± 0.41	896.2 ± 0.41	890.82 ± 0.41
x2 = 0.3499	920.17 ± 0.41	914.94 ± 0.41	909.7 ± 0.41	904.52 ± 0.41	899.24 ± 0.41
x2 = 0.4001	927.65 ± 0.41	922.49 ± 0.41	917.31 ± 0.41	912.1 ± 0.41	906.86 ± 0.41
x2 = 0.4501	934.96 ± 0.41	929.92 ± 0.41	924.83 ± 0.41	919.75 ± 0.41	914.64 ± 0.41
x2 = 0.5001	942 ± 0.41	936.98 ± 0.41	931.93 ± 0.41	926.87 ± 0.41	921.78 ± 0.41
x2 = 0.55	948.79 ± 0.41	943.85 ± 0.41	938.85 ± 0.41	933.86 ± 0.41	928.85 ± 0.41
x2 = 0.6	955.36 ± 0.41	950.46 ± 0.41	945.52 ± 0.41	940.57 ± 0.41	935.6 ± 0.41
x2 = 0.6499	961.69 ± 0.41	956.82 ± 0.41	951.89 ± 0.41	946.97 ± 0.41	942.03 ± 0.41
x2 = 0.6999	967.83 ± 0.41	962.98 ± 0.41	958.11 ± 0.41	953.22 ± 0.41	948.33 ± 0.41
x2 = 0.75	973.78 ± 0.41	968.97 ± 0.41	964.15 ± 0.41	959.31 ± 0.41	954.48 ± 0.41
x2 = 0.7997	979.5 ± 0.41	974.72 ± 0.41	969.93 ± 0.41	965.13 ± 0.41	960.32 ± 0.41
x2 = 0.8499	985.08 ± 0.41	980.34 ± 0.41	975.58 ± 0.41	970.81 ± 0.41	966.02 ± 0.41
x2 = 0.8999	990.48 ± 0.41	985.77 ± 0.41	981.05 ± 0.41	976.33 ± 0.41	971.59 ± 0.41
x2 = 0.95	995.72 ± 0.41	991.04 ± 0.41	986.35 ± 0.41	981.66 ± 0.41	976.95 ± 0.41

CCO[Si](C)(C)OCC [dimethyldiethoxysilane] + CO[Si](C)(OC)c1ccccc1
mass density [kg/m3]
Details	298.15 K	303.15 K	308.15 K	313.15 K	318.15 K
x2 = 0	835.43 ± 0.41	830.05 ± 0.42	824.66 ± 0.42	819.23 ± 0.42	813.79 ± 0.42
x2 = 0.05	844.52 ± 0.42	839.2 ± 0.42	833.85 ± 0.42	828.47 ± 0.42	823.07 ± 0.42
x2 = 0.1001	853.53 ± 0.41	848.24 ± 0.42	842.96 ± 0.42	837.62 ± 0.42	832.3 ± 0.42
x2 = 0.1499	862.39 ± 0.41	857.16 ± 0.41	851.93 ± 0.41	846.65 ± 0.42	841.38 ± 0.42
x2 = 0.2002	871.25 ± 0.41	866.06 ± 0.41	860.86 ± 0.41	855.62 ± 0.41	850.38 ± 0.41
x2 = 0.2501	879.99 ± 0.41	874.82 ± 0.41	869.69 ± 0.41	864.51 ± 0.41	859.35 ± 0.41
x2 = 0.3001	888.58 ± 0.41	883.47 ± 0.41	878.37 ± 0.41	873.21 ± 0.41	868.08 ± 0.41
x2 = 0.3499	897.15 ± 0.41	892.09 ± 0.41	887.07 ± 0.41	881.99 ± 0.41	876.96 ± 0.41
x2 = 0.4	905.59 ± 0.41	900.56 ± 0.41	895.53 ± 0.41	890.45 ± 0.41	885.39 ± 0.41
x2 = 0.4499	914.02 ± 0.41	909.03 ± 0.41	904.09 ± 0.41	899.09 ± 0.41	894.16 ± 0.41
x2 = 0.5	922.3 ± 0.4	917.36 ± 0.41	912.44 ± 0.41	907.47 ± 0.41	902.55 ± 0.41
x2 = 0.55	930.51 ± 0.41	925.59 ± 0.41	920.71 ± 0.41	915.78 ± 0.41	910.89 ± 0.41
x2 = 0.5999	938.58 ± 0.41	933.7 ± 0.41	928.83 ± 0.41	923.93 ± 0.41	919.05 ± 0.41
x2 = 0.65	946.66 ± 0.41	941.82 ± 0.41	936.99 ± 0.41	932.13 ± 0.41	927.3 ± 0.41
x2 = 0.6999	954.61 ± 0.41	949.79 ± 0.41	944.98 ± 0.41	940.14 ± 0.41	935.33 ± 0.41
x2 = 0.75	962.69 ± 0.41	957.72 ± 0.41	952.94 ± 0.41	948.14 ± 0.41	943.35 ± 0.41
x2 = 0.8	970.29 ± 0.41	965.52 ± 0.41	960.76 ± 0.41	955.98 ± 0.41	951.2 ± 0.41
x2 = 0.8498	978.01 ± 0.41	973.29 ± 0.41	968.57 ± 0.41	963.83 ± 0.41	959.11 ± 0.41
x2 = 0.9	985.69 ± 0.41	980.99 ± 0.41	976.3 ± 0.41	971.58 ± 0.41	966.88 ± 0.41
x2 = 0.95	993.25 ± 0.41	988.58 ± 0.41	983.91 ± 0.41	979.23 ± 0.41	974.53 ± 0.41

C=C[Si](C)(OCC)OCC [methylvinyldiethoxysilane] + CO[Si](C)(OC)c1ccccc1
mass density [kg/m3]
Details	298.15 K	303.15 K	308.15 K	313.15 K	318.15 K
x2 = 0	856.25 ± 0.41	851.09 ± 0.41	845.89 ± 0.41	840.71 ± 0.41	835.44 ± 0.41
x2 = 0.05	863.72 ± 0.41	858.61 ± 0.41	853.46 ± 0.41	848.28 ± 0.41	843.09 ± 0.41
x2 = 0.1001	871.17 ± 0.41	866.08 ± 0.41	860.96 ± 0.41	855.82 ± 0.41	850.66 ± 0.41
x2 = 0.1499	878.58 ± 0.41	873.53 ± 0.41	868.43 ± 0.41	863.33 ± 0.41	858.2 ± 0.41
x2 = 0.2001	885.98 ± 0.41	880.95 ± 0.41	875.9 ± 0.41	870.83 ± 0.41	865.74 ± 0.41
x2 = 0.2501	893.45 ± 0.41	888.45 ± 0.41	883.43 ± 0.41	878.38 ± 0.41	873.33 ± 0.41
x2 = 0.3	900.68 ± 0.41	895.69 ± 0.41	890.69 ± 0.41	885.67 ± 0.41	880.64 ± 0.41
x2 = 0.3499	907.99 ± 0.41	903.05 ± 0.41	898.08 ± 0.41	893.09 ± 0.41	888.08 ± 0.41
x2 = 0.4	915.28 ± 0.41	910.36 ± 0.41	905.41 ± 0.41	900.45 ± 0.41	895.47 ± 0.41
x2 = 0.4501	922.58 ± 0.41	917.68 ± 0.41	912.77 ± 0.41	907.84 ± 0.41	902.89 ± 0.41
x2 = 0.5	929.75 ± 0.41	924.84 ± 0.41	919.93 ± 0.41	915 ± 0.41	910.05 ± 0.41
x2 = 0.5499	937 ± 0.41	932.14 ± 0.41	927.28 ± 0.41	922.39 ± 0.41	917.49 ± 0.41
x2 = 0.6	944.21 ± 0.41	939.4 ± 0.41	934.57 ± 0.41	929.72 ± 0.41	924.87 ± 0.41
x2 = 0.65	951.55 ± 0.41	946.75 ± 0.41	941.94 ± 0.41	937.11 ± 0.41	932.27 ± 0.41
x2 = 0.6999	958.48 ± 0.41	953.71 ± 0.41	948.92 ± 0.41	944.12 ± 0.41	939.31 ± 0.41
x2 = 0.75	965.63 ± 0.41	960.89 ± 0.41	956.12 ± 0.41	951.35 ± 0.41	946.57 ± 0.41
x2 = 0.7999	972.72 ± 0.41	968 ± 0.41	963.25 ± 0.41	958.51 ± 0.41	953.74 ± 0.41
x2 = 0.85	979.76 ± 0.41	975.05 ± 0.41	970.33 ± 0.41	965.59 ± 0.41	960.85 ± 0.41
x2 = 0.8998	987.03 ± 0.41	982.34 ± 0.41	977.65 ± 0.41	972.94 ± 0.41	968.23 ± 0.41
x2 = 0.9499	993.78 ± 0.41	989.11 ± 0.41	984.43 ± 0.41	979.74 ± 0.41	975.03 ± 0.41

Source: the NIST ThermoML archive (doi:10.1016/j.jct.2016.10.033)
